Test results reported in patent publication US9725463B2, “Substituted heterocyclic compounds as CRAC modulators” (LUPIN LIMITED, priority 2013, dated 2017).

These compounds were tested on IL-2 secretion by Jurkat T cells (assay: Inhibition of IL-2 secretion). Conditions: Homo sapiens; Jurkat T cells stimulated with PHA, 20 to 24 hours, IL-2 by ELISA.
Assay type: cell-based
Method: The CRAC channel modulatory activity of the compounds were thus evaluated by measuring the secretion of IL-2 by antigen stimulated T-cells in vitro. Alternatively, such activity can also be evaluated by assay methods known to one skilled in the art.
Inhibition of IL-2 secretion: Jurkat T cells were seeded at a density of 0.5 to 1 million cells per well in RPMI medium. Test compounds from this invention were added to the cells at different concentrations. This was followed by the addition of PHA, a T cell mitogen after 10 minutes. The cells were then incubated for 20 to 24 hours in a CO2 incubator at 37° C. After incubation with the compounds, cells were centrifuged, the supernatant was collected and processed for ELISA to quantitate the amount of IL-2 secreted. A commercial ELISA kit (R&D Systems, Inc. Minneapolis, Minn., USA) was used to estimate the IL-2 concentrations. Amount of IL-2 secreted by cells stimulated with PHA was considered as a 100% maximal signal and the decrease in amount of IL-2 secreted by cells treated with the test compounds was expressed as percent inhibition of the maximal signal. The dose response data was analyzed using 4-parametric sigmoidal dose response (variable slope) curve-fit.

IC50, 50 to 100 nM:
Cc1c(-c2ccc(NC(=O)c3c(F)cccc3F)cc2)ccc2c1oc(=O)n2C [Example 14, N-(4-(3,7-Dimethyl-2-oxo-2,3-dihydrobenzo [d]oxazol-6-yl)phenyl)-2,6-difluorobenzamide]
CCn1c(=O)oc2cc(C)c(-c3ccc(NC(=O)c4c(F)cccc4F)cc3)cc21 [Example 28, N-(4-(3-Ethyl-6-methyl-2-oxo-2,3-dihydrobenzo[d]oxazol-5-yl)phenyl)-2,6-difluorobenzamide]
Cc1cc2oc(=O)n(C)c2cc1-c1cnc(NC(=O)c2c(F)cccc2F)cn1 [Example 51, N-(5-(3,6-dimethyl-2-oxo-2,3-dihydrobenzo[d]oxazol-5-yl)pyrazin-2-yl)-2,6-difluorobenzamide]
Cn1c(=O)oc2cc(-c3cnc(NC(=O)c4c(F)cccc4F)cn3)c(C3CC3)cc21 [Example 72, N-(5-(5-Cyclopropyl-3-methyl-2-oxo-2,3-dihydrobenzo [d]oxazol-6-yl)pyrazin-2-yl)-2,6-difluorobenzamide]
Cn1c(=O)oc2cc(-c3ccc(C(=O)Nc4c(F)cccc4F)s3)c(C3CC3)cc21 [Example 74, 5-(5-Cyclopropyl-3-methyl-2-oxo-2,3-dihydrobenzo [d]oxazol-6-yl)-N-(2,6-difluorophenyl) thiophene-2-carboxamide]

IC50, 25 to 50 nM:
Cc1c(-c2ccc(NC(=O)c3c(F)cccc3F)cc2)cnc2c1oc(=O)n2C [Example 1, N-(4-(3,7-Dimethyl-2-oxo-2,3-dihydrooxazolo[4,5-b]pyridin-6-yl)phenyl)-2,6-difluorobenzamide]
Cn1c(=O)oc2c(C3CC3)c(-c3ccc(NC(=O)c4c(F)cccc4F)cc3)cnc21 [Example 9, N-(4-(7-Cyclopropyl-3-methyl-2-oxo-2,3-dihydrooxazolo[4,5-b]pyridin-6-yl)phenyl)-2,6-difluorobenzamide]
CCc1c(-c2ccc(NC(=O)c3c(F)cccc3F)cc2)ccc2c1oc(=O)n2C [Example 16, N-(4-(7-Ethyl-3-methyl-2-oxo-2,3-dihydrobenzo [d]oxazol-6-yl)phenyl)-2,6-difluorobenzamide]
Cn1c(=O)oc2c(C3CC3)c(-c3ccc(NC(=O)c4c(F)cccc4F)cc3)ccc21 [Example 23, N-(4-(7-Cyclopropyl-3-methyl-2-oxo-2,3-dihydrobenzo[d]oxazol-6-yl)phenyl)-2,6-difluorobenzamide]
Cn1c(=O)oc2c(C3CC3)c(-c3ccc(NC(=O)c4c(F)cccc4F)nc3)ccc21 [Example 25, N-(5-(7-Cyclopropyl-3-methyl-2-oxo-2,3-dihydrobenzo[d]oxazol-6-yl)pyridin-2-yl)-2,6-difluorobenzamide]
Cc1cc2oc(=O)n(CC3CC3)c2cc1-c1ccc(NC(=O)c2c(F)cccc2F)cc1 [Example 29, N-(4-(3-(Cyclopropylmethyl)-6-methyl-2-oxo-2,3-dihydrobenzo[d]oxazol-5-yl)phenyl)-2,6-difluorobenzamide]
Cc1cc2oc(=O)n(C)c2cc1-c1ccc(NC(=O)c2c(F)cccc2Cl)cc1 [Example 46, 2-Chloro-N-(4-(3,6-dimethyl-2-oxo-2,3-dihydrobenzo[d]oxazol-5-yl)phenyl)-6-fluorobenzamide]
Cc1cc2oc(=O)n(C)c2cc1-c1ccc(NC(=O)c2c(C)cccc2F)cc1 [Example 49, N-(4-(3,6-Dimethyl-2-oxo-2,3-dihydrobenzo [d]oxazol-5-yl)phenyl)-2-fluoro-6-methylbenzamide]
Cc1cc2oc(=O)n(C)c2cc1-c1ccc(NC(=O)c2c(F)cccc2F)nc1 [Example 53, N-(5-(3,6-Dimethyl-2-oxo-2,3-dihydrobenzo [d]oxazol-5-yl)pyridin-2-yl)-2,6-difluoro benzamide]
Cc1cc2oc(=O)n(C)c2cc1-c1ccc(C(=O)Nc2c(Cl)cncc2Cl)s1 [Example 61, N-(3,5-Dichloropyridin-4-yl)-5-(3,6-dimethyl-2-oxo-2,3-dihydrobenzo [d]oxazol-5-yl)thiophene-2-carboxamide]
CCc1cc2c(cc1-c1ccc(NC(=O)c3c(F)cccc3F)nc1)oc(=O)n2C [Example 69, N-(5-(5-Ethyl-3-methyl-2-oxo-2,3-dihydrobenzo [d]oxazol-6-yl)pyridin-2-yl)-2,6-difluoro benzamide]
CCc1cc2c(cc1-c1ccc(C(=O)Nc3c(F)cccc3F)s1)oc(=O)n2C [Example 73, N-(2,6-Difluorophenyl)-5-(5-ethyl-3-methyl-2-oxo-2,3-dihydrobenzo [d]oxazol-6-yl) thiophene-2-carboxamide]

IC50, 100 to 500 nM:
CCc1c(-c2cnc(NC(=O)c3c(F)cccc3F)cn2)cnc2c1oc(=O)n2C [Example 6, N-(5-(7-Ethyl-3-methyl-2-oxo-2,3-dihydrooxazolo [4,5-b]pyridin-6-yl)pyrazin-2-yl)-2,6-difluorobenzamide]
Cn1c(=O)oc2c(C3CC3)c(-c3cnc(NC(=O)c4c(F)cccc4F)cn3)ccc21 [Example 26, N-(5-(7-Cyclopropyl-3-methyl-2-oxo-2,3-dihydrobenzo[d]oxazol-6-yl)pyrazin-2-yl)-2,6-difluorobenzamide]
Cc1cc2oc(=O)n(CCC(F)(F)F)c2cc1-c1ccc(NC(=O)c2c(F)cccc2F)cc1 [Example 33, 2,6-Difluoro-N-(4-(6-methyl-2-oxo-3-(3,3,3-trifluoropropyl)-2,3-dihydrobenzo[d]oxazol-5-yl)phenyl) benzamide]

IC50, < 25 nM:
CCc1c(-c2ccc(NC(=O)c3c(F)cccc3F)cc2)cnc2c1oc(=O)n2C [Example 5, N-(4-(7-Ethyl-3-methyl-2-oxo-2,3-dihydrooxazolo [4,5-b]pyridin-6-yl)phenyl)-2,6-difluorobenzamide]
Cc1cc2oc(=O)n(C)c2cc1-c1ccc(NC(=O)c2c(F)cccc2F)cc1 [Example 27, N-(4-(3,6-Dimethyl-2-oxo-2,3-dihydrobenzo [d]oxazol-5-yl)phenyl)-2,6-difluorobenzamide]
Cc1cc2oc(=O)n(CCF)c2cc1-c1ccc(NC(=O)c2c(F)cccc2F)cc1 [Example 30, 2,6-Difluoro-N-(4-(3-(2-fluoroethyl)-6-methyl-2-oxo-2,3-dihydrobenzo[d]oxazol-5-yl)phenyl)benzamide]
Cc1cc2oc(=O)n(C(C)C)c2cc1-c1ccc(NC(=O)c2c(F)cccc2F)cc1 [Example 31, 2,6-Difluoro-N-(4-(3-isopropyl-6-methyl-2-oxo-2,3-dihydrobenzo[d]oxazol-5-yl)phenyl)benzamide]
Cc1cc2oc(=O)n(C(F)F)c2cc1-c1ccc(NC(=O)c2c(F)cccc2F)cc1 [Example 32, N-(4-(3-(Difluoromethyl)-6-methyl-2-oxo-2,3-dihydrobenzo[d]oxazol-5-yl)phenyl)-2,6-difluorobenzamide]
CCCn1c(=O)oc2cc(C)c(-c3ccc(NC(=O)c4c(F)cccc4F)cc3)cc21 [Example 34, 2,6-Difluoro-N-(4-(6-methyl-2-oxo-3-propyl-2,3-dihydrobenzo [d]oxazol-5-371)phenyl)benzamide]
Cn1c(=O)oc2cc(-c3ccc(NC(=O)c4c(F)cccc4F)cc3)c(C3CC3)nc21 [Example 36, N-(4-(5-Cyclopropyl-3-methyl-2-oxo-2,3-dihydrooxazolo [4,5-b]pyridin-6-yl)phenyl)-2,6-difluorobenzamide]
CCc1nc2c(cc1-c1ccc(NC(=O)c3c(F)cccc3F)cc1)oc(=O)n2C [Example 37, N-(4-(5-Ethyl-3-methyl-2-oxo-2,3-dihydrooxazolo [4,5-b]pyridin-6-yl)phenyl)-2,6-difluorobenzamide]
Cc1nc2c(cc1-c1ccc(NC(=O)c3c(F)cccc3F)cc1)oc(=O)n2C [Example 38, N-(4-(3,5-dimethyl-2-oxo-2,3-dihydrooxazolo [4,5-b]pyridin-6-yl)phenyl)-2,6-difluorobenzamide]
Cn1c(=O)oc2cc(-c3ccc(NC(=O)c4c(F)cccc4F)cc3)c(C3CC3)cc21 [Example 42, N-(4-(5-Cyclopropyl-3-methyl-2-oxo-2,3-dihydrobenzo[d]oxazol-6-yl)phenyl)-2,6-difluorobenzamide]
CCc1cc2c(cc1-c1ccc(NC(=O)c3c(F)cccc3F)cc1)oc(=O)n2C [Example 43, N-(4-(5-Ethyl-3-methyl-2-oxo-2,3-dihydrobenzo[d]oxazol-6-yl)phenyl)-2,6-difluorobenzamide]
Cc1cc2oc(=O)n(C)c2cc1-c1ccc(NCc2c(F)cccc2F)cc1 [Example 55, 5-(4-((2,6-Difluorobenzyl)amino)phenyl)-3,6-dimethyl benzo[d] oxazol-2(3H)-one]
Cc1cc2c(cc1-c1ccc(NC(=O)c3c(F)cccc3F)cc1)oc(=O)n2C [Example 56, N-(4-(3,5-Dimethyl-2-oxo-2,3-dihydrobenzo [d]oxazol-6-yl)phenyl)-2,6-difluorobenzamide]
Cc1cc2oc(=O)n(C)c2cc1-c1ccc(C(=O)Nc2c(F)cncc2F)s1 [Example 60, N-(3,5-Difluoropyridin-4-yl)-5-(3,6-dimethyl-2-oxo-2,3-dihydrobenzo [d]oxazol-5-yl) thiophene-2-carboxamide]
CCc1cc2c(cc1-c1cnc(NC(=O)c3c(F)cccc3F)cn1)oc(=O)n2C [Example 70, N-(5-(5-Ethyl-3-methyl-2-oxo-2,3-dihydrobenzo [d]oxazol-6-yl)pyrazin-2-yl)-2,6-difluoro benzamide]
